For data set [1] the following is noted: PC-3 20 mg/kg PO.
For data set [2] the following is noted: for Cmax of hydromorphone in rat plasma / Tmax of hydromorphone in rat plasma: PC-3 20 mg/kg PO.
The target of data set [3] is T1, trypsin from bovine pancreas (Bos taurus, UniProt P00760).
T1 sequence (P00760 24-246): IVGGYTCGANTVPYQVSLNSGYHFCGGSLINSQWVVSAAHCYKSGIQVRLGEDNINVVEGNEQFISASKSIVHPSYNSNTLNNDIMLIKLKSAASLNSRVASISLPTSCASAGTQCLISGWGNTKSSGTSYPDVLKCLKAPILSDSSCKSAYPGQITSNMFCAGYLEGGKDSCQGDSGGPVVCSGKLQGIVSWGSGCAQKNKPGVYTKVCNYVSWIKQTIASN
The data set can be described thus: In vitro trypsin conversion of prodrugs to hydromorphone and inhibition by trypsin inhibitor.
Method: The reactions were conducted at 37° C. for 24 hr. Samples were collected at specified time points, transferred into 0.5% formic acid in acetonitrile to stop trypsin activity and stored at less than −70° C. until analysis by LC-MS/MS.
The results are expressed as half-life of prodrug when exposed to trypsin (i.e., Prodrug trypsin half-life) in hours and rate of formation of HM per unit of trypsin.

Data set [4] in a line: Oral administration of Compound PC-1 and SBTI in the presence of ovalbumin to rats: hydromorphone in plasma. As to conditions: for Cmax of hydromorphone in rat plasma: PC-1 20 mg/kg PO; for plasma Tmax of hydromorphone: rats; for Effect on Compound PC-1's ability to release hydromorphone: rats PO, PC-1 20 mg/kg with ovalbumin and/or SBTI. Here is the method: In an effort to understand the role of SBTI, ovalbumin was used as a non-trypsin inhibitor protein control. Albumin from chicken egg white (ovalbumin) (Catalog No. A7641, Grade VII, lyophilized powder, Sigma-Aldrich) was dissolved in saline.

Data set [5] in a line: Oral administration of Compound PC-1 and SBTI trypsin inhibitor to rats: hydromorphone in blood. As to conditions: for Cmax of hydromorphone in rat blood: PC-1 20 mg/kg PO.
Data set [6] in a line: Oral administration of Compound PC-1 and BBSI inhibitor to rats: hydromorphone in blood. As to conditions: PC-1 20 mg/kg PO.
For data set [7] the following is noted: PC-4 20 mg/kg PO.
For data set [8] the following is noted: for Cmax of HM in rat plasma / Tmax of HM in rat plasma: PC-4 20 mg/kg PO.
Data set [9] in a line: Oral administration of Compound PC-2 and SBTI to rats: hydromorphone in plasma. As to conditions: for Cmax of hydromorphone in rat plasma: PC-2 20 mg/kg PO.
The target in another data set is T2, trypsin (Bos taurus, UniProt P00760).
T2 sequence (P00760 24-246): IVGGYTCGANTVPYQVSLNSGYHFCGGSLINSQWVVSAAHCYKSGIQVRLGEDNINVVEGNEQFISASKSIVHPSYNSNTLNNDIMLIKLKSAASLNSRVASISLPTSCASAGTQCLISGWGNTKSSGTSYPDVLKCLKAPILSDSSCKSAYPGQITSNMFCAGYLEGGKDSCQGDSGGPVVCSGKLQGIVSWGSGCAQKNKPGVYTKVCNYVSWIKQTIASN
Kind of data set: In vitro IC50, modified trypsin assay. The data set is classed as biochemical.

Where [10] appears, read: No trypsin inhibitor, 0.761 mM prodrug, 37° C., Tris pH 8.

Values joined by “and” are separate entries in the source; they are usually repeats but may differ in a detail not shown here. Equal entries are not always repeated. “Also recorded” adds a separate entry of the source. Where two headings read alike, the source gives them in different places. Some results are limits rather than exact numbers.

Regarding `CC(=O)N[C@@H](CCCCN)C(=O)NCCN(C)C(=O)Oc1ccc2c3c1OC1C(=O)CCC4C(C2)N(C)CCC314` (stereo partly drawn) [Compound PC-3, (S)-2-Acetylamino-6-amino-hexanoic acid (2-methylamino-ethyl)-amide hydromorphone ester], the “Cmax of HM in rat plasma” value in [1] (Compound 101 0 mg/kg) was 9.0 ± 3.1 ng/mL; in [1] (Compound 101 10 mg/kg), 3.8 ± 2.9 ng/mL. For the same molecule, the “Tmax of HM in rat plasma” value in [1] (Compound 101 0 mg/kg) came to 2.3 h; in data set [1] (Compound 101 10 mg/kg), 3.5 h. Also, the “Cmax of hydromorphone in rat plasma” value in data set [2] (SBTI 0 mg/kg) is listed as 9.0 ± 3.1 ng/mL; in data set [2] (SBTI 500 mg/kg), 2.3 ± 1.7 ng/mL. Also, the “Tmax of hydromorphone in rat plasma” value is 2.3 h in [2] (SBTI 0 mg/kg) and 7.3 h in data set [2] (SBTI 500 mg/kg).

With `CCN(CCNC(=O)C(CCCNC(=N)N)NC(=O)CC(=O)O)C(=O)Oc1ccc2c3c1OC1C(=O)CCC4C(C2)N(C)CCC314` (stereo not drawn) [Compound PC-6, [2-(2-Malonyl-5-guanidino-pentanoylamino)-ethyl]-ethyl-carbamic acid hydromorphone ester], in data set [3] (setting [10]), the “Rate of HM formation, umols/h/umol trypsin Average ± sd” value was 262 ± 11 umols/h/umol trypsin.

In the case of `CCN(CCNC(=O)[C@H](CCCCN)NC(=O)CC(=O)O)C(=O)Oc1ccc2c3c1O[C@H]1C(=O)CC[C@H]4[C@@H](C2)N(C)CC[C@]314` [Compound PC-5, [2-((S)-2-malonylamino-4-amino-pentanoylamino)-ethyl]-ethyl-carbamic acid hydromorphone ester], the “Rate of HM formation, umols/h/umol trypsin Average ± sd” value in data set [3] (setting [10]) is reported as 106 ± 2 umols/h/umol trypsin.

For the molecule `CC(=O)NC(CCCNC(=N)N)C(=O)NCCN(C)C(=O)Oc1ccc2c3c1OC1C(=O)CCC4C(C2)N(C)CCC314` (stereo not drawn) [Compound PC-1, Hydromorphone 3-(N-methyl-N-(2-N′-acetylarginylamino)) ethylcarbamate], the “Cmax of hydromorphone in rat plasma” value in [4] (OVA 0 mg/kg, SBTI 0 mg/kg) amounted to 13.3 ± 3.7 ng/mL; in data set [4] (OVA 20 mg/kg, SBTI 0 mg/kg), 11.0 ± 5.4 ng/mL; in [4] (OVA 100 mg/kg, SBTI 0 mg/kg) it was 9.7 ± 3.1 ng/mL; in data set [4] (OVA 500 mg/kg, SBTI 0 mg/kg) it was 11.6 ± 2.5 ng/mL; in data set [4] (OVA 500 mg/kg, SBTI 500 mg/kg), 1.9 ± 0.9 ng/mL; in data set [4] (OVA 1000 mg/kg, SBTI 0 mg/kg) it was 10.3 ± 3.5 ng/mL. For the same molecule, the “plasma Tmax of hydromorphone” value in data set [4] (20 mg/kg Compound PC-1 alone) was determined as 2.3 h; in data set [4] (20 mg/kg Compound PC-1 with 500 mg/kg OVA and 500 mg/kg SBTI) it was 8.0 h. The “Cmax of hydromorphone in rat blood” value in data set [5] (SBTI 0 mg/kg) is given as 16.5 ± 5.3 ng/mL; in [5] (SBTI 10 mg/kg), 8.9 ± 1.8 ng/mL; in data set [5] (SBTI 100 mg/kg) it was 6.0 ± 4.0 ng/mL; in [5] (SBTI 500 mg/kg) it was less than 5 ng/mL; in data set [5] (SBTI 1000 mg/kg), less than 5 ng/mL; in [6] (BBSI 0 mg/kg, n = 4), 16.5 ± 5.3 ng/mL. Moreover, the “Cmax of hydromorphone in rat blood” value in data set [6] (BBSI 100 mg/kg, n = 3 (3 of the 4 rats)) is 10.6 ± 5.9 ng/mL; in data set [6] (BBSI 100 mg/kg, n = 4) it was 18.7 ± 17.0 ng/mL. Besides, in data set [3] (setting [10]), the “Rate of HM formation, umols/h/umol trypsin Average ± sd” value turned out to be 230 ± 8 umols/h/umol trypsin. Further, the “Cmax of rat not included in n = 3 analysis” value in [6] (BBSI 100 mg/kg, individual rat, blood) is recorded as 43 ng/mL. In data set [6] (BBSI 100 mg/kg, the 3 other rats, blood), the “Cmax range of other rats” value was 6.8 to 17 ng/mL.

For `CCN(CCNC(=O)[C@H](CCCNC(=N)N)NC(C)=O)C(=O)Oc1ccc2c3c1OC1C(=O)CCC4C(C2)N(C)CCC314` (stereo partly drawn) [Compound PC-4, [2-((S)-2-Acetylamino-5-guanidino-pentanoylamino)-ethyl]-ethyl-carbamic acid hydromorphone ester], the “Cmax of HM in rat plasma” value in data set [7] (Compound 101 0 mg/kg, n = 7) is given as 7.7 ± 2.3 ng/mL; in data set [7] (Compound 101 10 mg/kg, n = 4), 4.8 ± 1.4 ng/mL; in [8] (SBTI 0 mg/kg, n = 7), 7.7 ± 2.3 ng/mL; in [8] (SBTI 500 mg/kg, n = 4) it was 7.5 ± 2.1 ng/mL. Further, the “Tmax of HM in rat plasma” value in data set [7] (Compound 101 0 mg/kg, n = 7) was found to be 2.3 h; in [7] (Compound 101 10 mg/kg, n = 4), 6.0 h; in [8] (SBTI 0 mg/kg, n = 7), 2.3 h; in [8] (SBTI 500 mg/kg, n = 4), 6.5 h. Also, the “Rate of HM formation, umols/h/umol trypsin Average ± sd” value in data set [3] (setting [10]) was 322 umols/h/umol trypsin and 243 ± 1 umols/h/umol trypsin; in data set [3] (With trypsin inhibitor 3,089 uM Compound 109) it was 3.27 ± 1.87 umols/h/umol trypsin.

Take `CN(CCNC(=O)[C@@H](N)CCCNC(=N)N)C(=O)Oc1ccc2c3c1OC1C(=O)CCC4C(C2)N(C)CCC314` (stereo partly drawn) [Compound PC-2, [2-((S)-2-amino-5-guanidino-pentanoylamino)-ethyl]-methyl-carbamic acid hydromorphyl ester]: the “Cmax of hydromorphone in rat plasma” value in data set [9] (SBTI 0 mg/kg) is 14.2 ± 2.6 ng/mL; in data set [9] (SBTI 500 mg/kg), 7.3 ± 3.5 ng/mL.

B1: SBTI: trypsin inhibitor from Glycine max (soybean) (Catalog No. 93620, ˜10,000 units per mg, Sigma-Aldrich) (protein, UniProt P01070 25-205, looked up)
Trypsin inhibitor A: DFVLDNEGNPLENGGTYYILSDITAFGGIRAAPTGNERCPLTVVQSRNELDKGIGTIISSPYRIRFIAEGHPLSLKFDSFAVIMLCVGIPTEWSVVEDLPEGPAVKIGENKDAMDGWFRLERVSDDEFNNYKLVFCPQQAEDDKCGDIGISIDHDDGTRRLVVSKNKPLVVQFQKLDKESL
As a reminder, the IC50 is the midpoint of a concentration-inhibition curve. A lower IC50 goes with inhibition by little substance. For B1, the “Effect on Compound PC-1's ability to release hydromorphone” value in data set [4] is “suppresses Cmaxand delays Tmax of such hydromorphone in plasma, even in the presence of ovalbumin; also recorded: acting specifically by inhibiting trypsin rather than in a non-specific manner”. For the same molecule, the “Effect of SBTI on Compound PC-1's ability to release hydromorphone” value in data set [5] (rats PO, PC-1 20 mg/kg with 10, 100, 500 or 1000 mg/kg SBTI) was “attenuates Compound PC-1's ability to release hydromorphone in a dose-dependent manner that can approach approximately 100% attenuation at higher SBTI concentrations; also recorded: suppresses Cmaxand delays Tmax”. In addition, the “Effect of SBTI on Compound PC-3's ability to release hydromorphone” value in data set [2] (rats PO, PC-3 20 mg/kg with 500 mg/kg SBTI) is reported as “attenuates Compound PC-3's ability to release hydromorphone, both with respect to suppressing Cmaxand delaying Tmax”. In data set [9] (rats PO, PC-2 20 mg/kg with 500 mg/kg SBTI), the “Effect of SBTI on Compound PC-2's ability to release hydromorphone” value is “attenuates Compound PC-2's ability to release hydromorphone, both with respect to suppressing Cmaxand delaying Tmax”. In data set [8] (rats PO, PC-4 20 mg/kg with 500 mg/kg SBTI), the “Effect of SBTI on Compound PC-4's ability to release hydromorphone” value is listed as “attenuates Compound PC-4's ability to release hydromorphone, at least with respect to delaying Tmax”. The half-maximal inhibitory concentration (IC50) with trypsin is 270 nM.

B2: ovalbumin: Albumin from chicken egg white, used as a non-trypsin inhibitor protein control (protein, UniProt P01012 2-386, looked up)
Ovalbumin: GSIGAASMEFCFDVFKELKVHHANENIFYCPIAIMSALAMVYLGAKDSTRTQINKVVRFDKLPGFGDSIEAQCGTSVNVHSSLRDILNQITKPNDVYSFSLASRLYAEERYPILPEYLQCVKELYRGGLEPINFQTAADQARELINSWVESQTNGIIRNVLQPSSVDSQTAMVLVNAIVFKGLWEKAFKDEDTQAMPFRVTEQESKPVQMMYQIGLFRVASMASEKMKILELPFASGTMSMLVLLPDEVSGLEQLESIINFEKLTEWTSSNVMEERKIKVYLPRMKMEEKYNLTSVLMAMGITDVFSSSANLSGISSAESLKISQAVHAAHAEINEAGREVVGSAEAGVDAASVSEEFRADHPFLFCIKHIATNAVLFFGRCVSP
Take B2: the “Effect on Compound PC-1's ability to release hydromorphone” value in [4] is “does not significantly affect Compound PC-1's ability to release hydromorphone”.
